PubChem BioAssay AID1963959 (Molecular Pharmacology Branch, DTP, NCI, 2024)
pIC50: −log10 of the molar value.

Tested on: T-47D spheroids with HUVEC/MSC, viability
Test: Anticancer human tumor T-47D cell line growth inhibition [PI3K];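 note: spheroids exposed to agents for seven days before reading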;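 for viability, T/C: percent of DMSO vehicle control luminescence so 100% = untreated growth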
Details: for viability, T/C: stronger effect = lower value; active = viability on the fitted dose curve at most 10% of control; inactive = the rest
Summary of the method: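 Stroma-containing spheroids: tumor line, pooled-donor HUVEC, hMSC. Treatments: targeted agents with PI3K inhibitors. Dosing: clinically relevant, half-log spacing, 10 microM ceiling without known Cmax. Read-out: cell viability.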

[1] = curve of first compound, second compound 0.0316 µM
[2] = curve of first compound, second compound 0.1 µM
[3] = curve of first compound, second compound 0.316 µM
[4] = curve of first compound, second compound 1 µM
[5] = second compound 0.0316 µM, first compound 0.0316 µM
[6] = second compound 0.0316 µM, first compound 0.1 µM
[7] = second compound 0.1 µM, first compound 0.0316 µM
[8] = second compound 0.1 µM, first compound 0.1 µM
[9] = second compound 0.316 µM, first compound 0.0316 µM
[10] = second compound 0.316 µM, first compound 0.1 µM
[11] = second compound 1 µM, first compound 0.0316 µM
[12] = second compound 1 µM, first compound 0.1 µM
[13] = curve of first compound, second compound 0.00316 µM
[14] = curve of first compound, second compound 0.01 µM
[15] = second compound 0.00316 µM, first compound 0.0316 µM
[16] = second compound 0.00316 µM, first compound 0.1 µM
[17] = second compound 0.00316 µM, first compound 0.316 µM
[18] = second compound 0.00316 µM, first compound 1 µM
[19] = second compound 0.00316 µM, first compound 3.16 µM
[20] = second compound 0.00316 µM, first compound 10 µM
[21] = second compound 0.01 µM, first compound 0.0316 µM
[22] = second compound 0.01 µM, first compound 0.1 µM
[23] = second compound 0.01 µM, first compound 0.316 µM
[24] = second compound 0.01 µM, first compound 1 µM
[25] = second compound 0.01 µM, first compound 3.16 µM
[26] = second compound 0.01 µM, first compound 10 µM
[27] = second compound 0.0316 µM, first compound 0.316 µM
[28] = second compound 0.0316 µM, first compound 1 µM
[29] = second compound 0.0316 µM, first compound 3.16 µM
[30] = second compound 0.0316 µM, first compound 10 µM
[31] = second compound 0.1 µM, first compound 0.316 µM
[32] = second compound 0.1 µM, first compound 1 µM
[33] = second compound 0.1 µM, first compound 3.16 µM
[34] = second compound 0.1 µM, first compound 10 µM
[35] = second compound 0.316 µM, first compound 0.316 µM
[36] = second compound 0.316 µM, first compound 1 µM
[37] = second compound 0.316 µM, first compound 3.16 µM
[38] = second compound 0.316 µM, first compound 10 µM
[39] = second compound 1 µM, first compound 0.316 µM
[40] = second compound 1 µM, first compound 1 µM
[41] = second compound 1 µM, first compound 3.16 µM
[42] = second compound 1 µM, first compound 10 µM

CC(C)n1nc(-c2ccc3oc(N)nc3c2)c2c(N)ncnc21 + Cc1nc(NC(=O)N2CCCC2C(N)=O)sc1-c1ccnc(C(C)(C)C(F)(F)F)c1
7.28: pIC50 [3]
7.22: pIC50 [2]
active: viability, T/C (second compound 3.16 µM, first compound 0.1 µM) 6.08% | viability, T/C (second compound 10 µM, first compound 0.1 µM) 2.67%
7.14: pIC50 [1]
7.57: pIC50 [4]
8.04: pIC50 (curve of first compound, second compound 3.16 µM)
> 9.50: pIC50 (curve of first compound, second compound 10 µM)
inactive: viability, T/C (second compound 0.0316 µM, first compound 0.000316 µM) 106% | viability, T/C (second compound 0.0316 µM, first compound 0.001 µM) 94.2% | viability, T/C (second compound 0.0316 µM, first compound 0.00316 µM) 95.9% | viability, T/C (second compound 0.0316 µM, first compound 0.01 µM) 95.9% | viability, T/C [5] 78.8% | viability, T/C [6] 38.7% | viability, T/C (second compound 0.1 µM, first compound 0.000316 µM) 110% | viability, T/C (second compound 0.1 µM, first compound 0.001 µM) 87.2% | viability, T/C (second compound 0.1 µM, first compound 0.00316 µM) 99.3% | viability, T/C (second compound 0.1 µM, first compound 0.01 µM) 109% | viability, T/C [7] 79% | viability, T/C [8] 27.9% | viability, T/C (second compound 0.316 µM, first compound 0.000316 µM) 101% | viability, T/C (second compound 0.316 µM, first compound 0.001 µM) 98.9% | viability, T/C (second compound 0.316 µM, first compound 0.00316 µM) 82.3% | viability, T/C (second compound 0.316 µM, first compound 0.01 µM) 92.7% | viability, T/C [9] 67.4% | viability, T/C [10] 26.9% | viability, T/C (second compound 1 µM, first compound 0.000316 µM) 89% | viability, T/C (second compound 1 µM, first compound 0.001 µM) 93.2% | viability, T/C (second compound 1 µM, first compound 0.00316 µM) 86.3% | viability, T/C (second compound 1 µM, first compound 0.01 µM) 70.7% | viability, T/C [11] 47% | viability, T/C [12] 21.2% | viability, T/C (second compound 3.16 µM, first compound 0.000316 µM) 62.9% | viability, T/C (second compound 3.16 µM, first compound 0.001 µM) 68.3% | viability, T/C (second compound 3.16 µM, first compound 0.00316 µM) 64.6% | viability, T/C (second compound 3.16 µM, first compound 0.01 µM) 42.7% | viability, T/C (second compound 3.16 µM, first compound 0.0316 µM) 33.1% | viability, T/C (second compound 10 µM, first compound 0.000316 µM) 37.5% | viability, T/C (second compound 10 µM, first compound 0.001 µM) 40.2% | viability, T/C (second compound 10 µM, first compound 0.00316 µM) 33.1% | viability, T/C (second compound 10 µM, first compound 0.01 µM) 21.7% | viability, T/C (second compound 10 µM, first compound 0.0316 µM) 12.8%

CC(C)NCC(C(=O)N1CCN(c2ncnc3c2C(C)CC3O)CC1)c1ccc(Cl)cc1 (stereo not drawn) + COc1c(OCCCN2CCOCC2)ccc2c3n(c(=NC(=O)c4cnc(N)nc4)nc12)CCN3
active: viability, T/C [11] 5.88% | viability, T/C [12] 5.08% | viability, T/C [39] 4.99% | viability, T/C [40] 5.31% | viability, T/C [41] 4.66% | viability, T/C [42] 6.36%
5.28: pIC50 [13]
5.80: pIC50 [14]
inactive: viability, T/C [15] 92.8% | viability, T/C [16] 71% | viability, T/C [17] 74.3% | viability, T/C [18] 64.8% | viability, T/C [19] 50.7% | viability, T/C [20] 45.9% | viability, T/C [21] 90.7% | viability, T/C [22] 74.2% | viability, T/C [23] 64% | viability, T/C [24] 53.6% | viability, T/C [25] 45.3% | viability, T/C [26] 38.8% | viability, T/C [5] 69.8% | viability, T/C [6] 70.9% | viability, T/C [27] 50.1% | viability, T/C [28] 45.2% | viability, T/C [29] 40.6% | viability, T/C [30] 38.3% | viability, T/C [7] 46.5% | viability, T/C [8] 40.7% | viability, T/C [31] 34.3% | viability, T/C [32] 30.4% | viability, T/C [33] 30.2% | viability, T/C [34] 26.1% | viability, T/C [9] 17.6% | viability, T/C [10] 18.4% | viability, T/C [35] 16% | viability, T/C [36] 17.4% | viability, T/C [37] 15.1% | viability, T/C [38] 15.6%
6.49: pIC50 [1]
> 7.50: pIC50 [2] | pIC50 [3] | pIC50 [4]

CC(Cn1ccc(-c2ccc(C#N)c(Cl)c2)n1)NC(=O)c1cc(C(C)O)[nH]n1 (stereo not drawn)
inactive: viability, T/C (compound 0.0316 µM) 100% [middle of 4 runs] | viability, T/C (compound 0.1 µM) 107% [middle of 4 runs] | viability, T/C (compound 0.316 µM) 92.3% [middle of 4 runs] | viability, T/C (compound 1 µM) 95.2% [middle of 4 runs] | viability, T/C (compound 3.16 µM) 89.8% [middle of 4 runs] | viability, T/C (compound 10 µM) 58.7% [middle of 4 runs]
< 5.00: pIC50 (curve of compound)

CC(C)NCC(C(=O)N1CCN(c2ncnc3c2C(C)CC3O)CC1)c1ccc(Cl)cc1 (stereo not drawn) + CC(Nc1ccc2c(c1)OCCn1cc(N3C(=O)OCC3C(F)F)nc1-2)C(N)=O
5.41: pIC50 [2]
< 5.00: pIC50 [14] | pIC50 [1]
5.62: pIC50 [3]
inactive: viability, T/C [15] 109% | viability, T/C [16] 96.1% | viability, T/C [17] 82.7% | viability, T/C [18] 80.5% | viability, T/C [19] 60.5% | viability, T/C [20] 48% | viability, T/C [21] 94.5% | viability, T/C [22] 94.2% | viability, T/C [23] 91% | viability, T/C [24] 73.6% | viability, T/C [25] 66.6% | viability, T/C [26] 59% | viability, T/C [5] 102% | viability, T/C [6] 95.5% | viability, T/C [27] 84.7% | viability, T/C [28] 68.5% | viability, T/C [29] 53.7% | viability, T/C [30] 51.6% | viability, T/C [7] 94.1% | viability, T/C [8] 81.2% | viability, T/C [31] 75.7% | viability, T/C [32] 59.3% | viability, T/C [33] 51.8% | viability, T/C [34] 43.6% | viability, T/C [9] 63.2% | viability, T/C [10] 64% | viability, T/C [35] 56.7% | viability, T/C [36] 53.5% | viability, T/C [37] 50.1% | viability, T/C [38] 41.6% | viability, T/C [11] 51.7% | viability, T/C [12] 46.8% | viability, T/C [39] 52.2% | viability, T/C [40] 41.4% | viability, T/C [41] 42.3% | viability, T/C [42] 44.3%
5.06: pIC50 [13]
7.20: pIC50 [4]
